The values that follow come from US5051534A, “Novel cyclopropyl squalene derivatives and their use as inhibitors of cholesterol synthesis” (Merrell Dow Pharmaceuticals Inc., priority 1990, dated 1991).

In this test the target is T1, squalene epoxidase (Rattus norvegicus, UniProt P52020).
T1 construct: Microsomes, prepared by ultracentrifugation of homogenates of rat liver; from tissue; host or cells: rat liver microsomes, incubated with the high speed supernatant fraction
Briefly: Inhibition of squalene epoxidase in rat liver microsomes (3H-squalene incubation, TLC or HPLC radioactivity). It counts as biochemical. The note with it: 37° C., 45 minutes, 60 μM 3H-squalene, 2.0 mM NADPH, 0.01 mM FAD, compounds tested at >0.0 to 100.0 μM. Here is the method: The following assay is used to test compounds for their ability to inhibit 2,3-oxidosqualene lanosterol-cyclase (squalene cyclase) or squalene epoxidase. Microsomes, prepared by ultracentrifugation of homogenates of rat liver, are incubated at 37° C. for 45 minutes in the presence of 60 μM ^3 H-squalene, 2.0 mM NADPH, 0.01 mM FAD, and the high speed supernatant fraction from the microsomal preparation. Blanks, in which NADPH has been omitted, are run simultaneously with the test compounds. Compounds are tested at concentrations of >0.0 to 100.0 μM.
Following incubation the samples are saponified, standards are added to each sample, and then the reaction products are extracted into hexane. The hexane extracts are dried and then the dried extracts are redissolved in chloroform. […] Spots containing the reaction products are scraped from the TLC plates and counted for radioactivity in a scintillation counter. An IC50 is finally calculated.
Incubation reactions are stopped by the addition of chloroform:methanol, standards are added and the reaction products and standards are extracted into chloroform. […] Chromatographic peaks containing reaction products are monitored for radioactivity with a flow-through scintillation counter connected in series with the HPLC column. An IC50 (Inhibitory Concentration) is calculated based on the radioactivity in controls and samples. […]
(In general: Microsomes from liver hold many membrane-bound enzymes, among them those of drug oxidation.)

T1 sequence (P52020 whole entry): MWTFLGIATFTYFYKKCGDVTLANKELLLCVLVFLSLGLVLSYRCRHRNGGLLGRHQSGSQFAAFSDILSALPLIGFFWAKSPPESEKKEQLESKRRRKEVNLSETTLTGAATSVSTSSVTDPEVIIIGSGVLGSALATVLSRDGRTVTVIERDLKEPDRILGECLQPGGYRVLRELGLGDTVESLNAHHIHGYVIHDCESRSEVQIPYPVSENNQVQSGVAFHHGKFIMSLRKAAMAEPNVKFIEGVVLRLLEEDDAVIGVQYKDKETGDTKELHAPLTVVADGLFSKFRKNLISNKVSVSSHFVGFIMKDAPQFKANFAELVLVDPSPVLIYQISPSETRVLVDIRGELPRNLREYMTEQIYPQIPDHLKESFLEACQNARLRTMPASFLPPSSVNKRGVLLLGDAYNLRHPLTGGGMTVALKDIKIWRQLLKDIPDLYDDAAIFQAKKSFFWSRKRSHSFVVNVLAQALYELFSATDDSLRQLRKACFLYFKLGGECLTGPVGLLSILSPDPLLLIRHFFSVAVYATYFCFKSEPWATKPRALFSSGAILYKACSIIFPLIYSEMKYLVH

As for `CC(C)=CCC/C(C)=C/CC/C(C)=C/CC/C=C(\C)CC/C=C(\C)CCCOC1CC1` [Compound 1, 4,8,13,17,21-Pentamethyl-4,8,12,16,20-docosapentaen-l-ol cyclopropyl ether], the IC50 is 42 µM.

For orientation: IC50 means the concentration at which inhibition is half-maximal.
